Key:
[1] = biological target: truncated human beta-secretase, BACE1 (amino acids 1-454) (Homo sapiens (Human), UniProt P56817); experiment: BACE1 Assay (Assay 1), fluorescence quench assay; assay type: biochemical; conditions: Table 1; pH 4.4, 1 μM substrate peptide; read-out: BACE 1 IC50 nM (Assay 1)
Experimental: The substrate was dissolved at 1 mg/ml in DMSO.
The assay was performed in the presence of OptiMEM™ (supernatant collected over 24 h and cleared from cellular debris by centrifugation) containing the ectodomain of BACE1, 25 μl water containing the desired 2-fold concentration of test compound and 2% DMSO, 1 μM substrate peptide, 20 mM NaOAc, pH 4.4, and 0.04% Triton-X100 in a total assay volume of 50 μl in a 384 well plate. In general, 25 μl of compound dilution were added to the plate followed by the addition of 10 μl of BACE1 containing OptiMEM™ diluted 1:10 in water with 0.2% Triton X-100. The reaction was started with the addition of 15 μl substrate in NaOAc buffer. The reaction was incubated at rt (dark) in an Envision® multilabel reader (Perkin Elmer) and the cleavage of the substrate was recorded as kinetic for 60 min at ex: 485 nm, em: 538 nm. Blank wells containing no enzyme were included on each plate.
The intensity of fluorescence was regressed against time in order to derive velocities of reaction in all 384 wells. These velocities were used for calculating percent control using an uninhibited control containing 1% DMSO as 100% and a blank control performed in the absence of enzyme as 0%. IC50 values were calculated by fitting percent control vs. test compound concentration using Assay Explorer®.

[2] = tested on: Abeta1-x production in H4 neuroglioma cell line stably expressing human APP; experiment: H4-APPwt Cell-Based Assay (Assay 2), production of Abeta1-x peptides; conditions: Table 1; H4 cells expressing human APP, Abeta1-x by AlphaLISA, 18 h
Experimental: Cellular potency of the compounds was assessed in an assay monitoring production of Abeta1-x peptides in the H4 neuroglioma cell line (ATCC, Cat. #HTB-148) stably expressing human APP. Tested compounds were dissolved in DMSO and pre-diluted in the culture medium (DMEM containing 10% FBS and 1% penicillin/streptomycin) to achieve twice the final concentration of the compounds in the assay. Equal volumes of the 2× solutions of the tested compounds and cell suspension were added to a 96-well culture plate, so that each well contained ˜10,000 cells in a final volume of 200 μl. Final concentration of DMSO in the assay was 0.2%. The plates were incubated for 5 h at 37° C., 5% CO2 to allow cells to attach to the bottom of the wells in the presence of the tested compounds. The media was removed and replaced with fresh media containing tested compounds at the same final concentration. The plates were incubated for 18 h at 37° C., 5% CO2. Concentrations of Ab1-x were determined using AlphaLISA immunoassay (PerkinElmer, Cat. # AL288) following the manufacturer's protocol. Concentrations of Abeta1-x in the wells containing either DMSO or 10 μM beta-secretase inhibitor (BACE inhibitor IV, EMD Bioscience, Cat. #565788) were used as uninhibited and background controls, respectively, for calculating percent inhibition values for each well with the tested compounds.

Sequence of truncated human beta-secretase, BACE1 (amino acids 1-454) (P56817 22-454): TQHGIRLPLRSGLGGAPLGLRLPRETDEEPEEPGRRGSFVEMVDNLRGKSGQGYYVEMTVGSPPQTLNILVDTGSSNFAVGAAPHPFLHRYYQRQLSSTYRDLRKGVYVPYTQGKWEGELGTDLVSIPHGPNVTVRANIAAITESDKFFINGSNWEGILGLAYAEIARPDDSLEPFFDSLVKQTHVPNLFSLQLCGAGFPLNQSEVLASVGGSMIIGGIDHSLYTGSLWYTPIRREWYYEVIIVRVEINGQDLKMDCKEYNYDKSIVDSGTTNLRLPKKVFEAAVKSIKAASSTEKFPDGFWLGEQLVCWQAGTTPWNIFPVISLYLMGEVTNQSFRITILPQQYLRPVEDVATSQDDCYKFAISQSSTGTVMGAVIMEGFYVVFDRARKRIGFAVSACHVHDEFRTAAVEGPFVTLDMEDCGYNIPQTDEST

| Compound | IC50 [1] [nM] | IC50 [2] [nM] |
| --- | --- | --- |
| CO[C@H]1[C@H](C)C[C@@]2(Cc3ccc(Br)cc3[C@@]23N=C(C)C(N)=N3)C[C@@H]1C [Example 1] | 4 | 4.5 |
| CO[C@H]1[C@H](C)C[C@@]2(Cc3ccc(C#N)cc3[C@@]23N=C(C)C(N)=N3)C[C@@H]1C [Example 2] | 3.5 | 4 |
| CC1=N[C@]2(N=C1N)c1cc(C#N)ccc1C[C@@]21C[C@@H](C)[C@H](O)[C@@H](C)C1 [Example 3] | 37 | 34 |
| CO[C@H]1CC[C@@]2(Cc3ccc(Br)cc3C23N=C(C)C(N)=N3)C[C@@H]1C (stereo partly shown) [Example 4] |  | 6.2 |
| CO[C@H]1CC[C@@]2(Cc3ccc(C#N)cc3[C@@]23N=C(C)C(N)=N3)C[C@@H]1C [Example 5] | 1.5 | 2 |
| CO[C@H]1[C@H](C)C[C@@]2(Cc3ccc(-c4cncc(F)c4)cc3[C@@]23N=C(C)C(N)=N3)C[C@@H]1C [Example 6] | 1.5 | 0.6 |
| CC#Cc1cncc(-c2ccc3c(c2)[C@@]2(N=C(C)C(N)=N2)[C@@]2(C3)C[C@@H](C)[C@H](OC)[C@@H](C)C2)c1 [Example 7] | 8.2 | 4 |

Reference: patent publication US9290477B2, “Inhibitors of β-secretase” (Vitae Pharmaceuticals, Inc., priority 2012, dated 2016)
